According to paper PMC7279249, “Synthesis of Fmoc-Triazine Amino Acids and Its Application in the Synthesis of Short Antibacterial Peptidomimetics” (International Journal of Molecular Sciences, 2020):
≈ marks a conversion by molar mass, not a printed value. Like-named read-outs stand apart in the source and are kept apart here. Peptide text beside a SMILES is read from it.

Experiments:
[1] = test system: Staphylococcus epidermidis (KCTC 1917)
Experimental: (§1) The bacterial cells were grown overnight for 18 h at 37 °C in 10 mL of Mueller Hinton broth (MHB). The 10 μL of this culture was inoculated into 10 mL of fresh MHB and incubated for an additional 3 h at 37 °C to obtain mid-logarithmic phase organisms. Aliquots (100 μL) of bacterial cell suspension at 4 × 10^6 CFU/mL in 1% peptone were added to 100 μL of the sample solutions (serial 2-fold dilutions in 1% peptone). […] The MIC values were determined after 18 h of incubation.

[2] = test system: P. aeruginosa (KCTC 1637)
Experimental: as §1

E. coli (KCTC 1682) = test system: E. coli (KCTC 1682)
Experimental: as §1

[3] = test system: Staphylococcus aureus (KCTC 1621)
Experimental: as §1

[4] = Analytical RP-HPLC retention time; format: physicochemical; details: C18 4.6 mm × 250 mm, 0.05% aq. TFA (A) / 0.05% TFA in CH3CN (B), 5% to 95% B in 30 min, 1.0 mL/min, 25 °C, 280 nm, method A of the Supplementary Material
Experimental: As described previously, all reactions were performed under argon atmosphere in flame-dried glassware using dry solvents unless otherwise noted. Anhydrous organic solvents of purity greater than 99.9% were purchased from Aldrich and used directly in the reaction. All reagents and some of the starting materials were purchased from commercial chemical suppliers, including Sigma-Aldrich, TCI, and Across Organics and used as received. Analytical thin-layer chromatography (TLC) was performed on Merck aluminum sheets with silica gel 60 F254 using 0.25 mm plates, and was visualized by ultraviolet light, staining with KMnO4 and ninhydrin. Column chromatography purification was performed on Merck silica gel 60 (70–230 mesh or 230–400 mesh). Bruker DRX-400 and DRX-500 NMR spectrometer were used for recording ^1H and ^13C NMR spectra. NMR chemical shifts (δ) are denoted in parts per million (ppm), and coupling constants (J) are given in hertz (Hz). MALDI-TOF mass was recorded using Shimadzu mass spectrometer. The crude peptidomimetics and peptides were purified by reverse-phase high-performance liquid chromatography (RP-HPLC) on Agilent HPLC system equipped with a C18 semi-preparative column (250 mm × 22 mm, 10 μm) using 0.05% aq. trifluoroacetic acid (TFA) (eluent A) and 0.05% TFA in CH3CN (eluent B) were used with a flow rate of 5.0 mL/min at 25 °C, under wavelength 280 nm. Moreover, the purity of the peptide judged to be ≥ 95% pure by analytical HPLC equipped with a C18 column (4.6 mm× 250 mm, 10 μm). Two different linear gradients of 0.05% aq. TFA (eluent A) and 0.05% TFA in CH3CN (eluent B) (gradient method, 5% of eluent B to 95% of Eluent B in 30 min; injection volume, 10 µL; concentration 10 µmol) were used with a flow rate of 1.0 mL/min at 25 °C, under wavelength 280 nm.

[5] = test system: trypsin (read-out S. aureus KCTC 1621); format: in vitro ADME
Experimental: (§2) Digestion of the BJK-4 and melittin by trypsin was carried out using 100 μg/mL peptide and 0.4 μg/mL trypsin in PBS, at 37 °C for 2 h. The reaction solution (50 μL) was added to 150 μL of a bacterial suspension (2 × 10^6 CFU/mL in Mueller-Hinton broth). After incubation at 37 °C for 18 h, the bacterial growth inhibition was determined by measuring absorbance at 600 nm with a microplate ELISA reader (Bio-Tek; EL 800).

[6] = test system: trypsin (read-out E. coli KCTC 1682); format: in vitro ADME
Experimental: as §2

[7] = Gram-positive, serial 2-fold dilutions in 1% peptone, 1 to […], 18 h incubation, lowest concentration causing 100% inhibition of growth (no visible turbidity)
[8] = Gram-negative, serial 2-fold dilutions in 1% peptone, 1 to […], 18 h incubation, lowest concentration causing 100% inhibition of growth (no visible turbidity)

| MIC, Staphylococcus epidermidis (KCTC 1917) ([1]; KCTC 1917, 18 h) [µg/mL] | MIC, P. aeruginosa (KCTC 1637) ([2]; KCTC 1637, 18 h) [µg/mL] | MIC, E. coli (KCTC 1682) (E. coli (KCTC 1682); KCTC 1682, 18 h) [µg/mL] | MIC, Staphylococcus aureus (KCTC 1621) ([3]; KCTC 1621, 18 h) [µg/mL] | Rt, HPLC retention time [4] [min] | SMILES | Antimicrobial activity against S. aureus after trypsin treatment [5] | Antimicrobial activity against E. coli after trypsin treatment [6] | MIC, Staphylococcus epidermidis (KCTC 1917) [1, 7] [µg/mL] | MIC, P. aeruginosa (KCTC 1637) [2, 8] [µg/mL] | MIC, E. coli (KCTC 1682) (E. coli (KCTC 1682); [8]) [µg/mL] | MIC, Staphylococcus aureus (KCTC 1621) [3, 7] [µg/mL] | Antimicrobial activity against S. aureus after trypsin treatment ([5]; 100 μg/mL peptide, 0.4 μg/mL trypsin in PBS, 37 °C, 2 h, then S. aureus KCTC 1621 in Mueller-Hinton broth, 18 h at 37 °C, absorbance 600 nm) | Antimicrobial activity against E. coli after trypsin treatment ([6]; 100 μg/mL peptide, 0.4 μg/mL trypsin in PBS, 37 °C, 2 h, then E. coli KCTC 1682 in Mueller-Hinton broth, 18 h at 37 °C, absorbance 600 nm) |
| --- | --- | --- | --- | --- | --- | --- | --- | --- | --- | --- | --- | --- | --- |
| >128 | 128 (≈ 335 µM) | 128 (≈ 335 µM) | >128 | 8.8 | CC(=O)NCCNc1nc(NCC(N)=O)nc(N(CCCN)CCCN)n1 [BJK-1] | – | – | – | – | – | – | – | – |
| >128 | >128 | >128 | >128 | 21.8 | CC(=O)NCCNc1nc(NCC(N)=O)nc(N(Cc2ccccc2)Cc2ccccc2)n1 [BJK-2] | – | – | – | – | – | – | – | – |
| 32 (≈ 41.5 µM) | 32 (≈ 41.5 µM) | 64 (≈ 82.9 µM) | 32 (≈ 41.5 µM) | – | CC(=O)NCCNc1nc(NCC(=O)NCCNc2nc(NCC(N)=O)nc(N(Cc3ccccc3)Cc3ccccc3)n2)nc(N(CCCN)CCCN)n1 [BJK-3] | – | – | – | – | – | – | – | – |
| 64 (≈ 55.1 µM) | 32 (≈ 27.6 µM) | 128 (≈ 110 µM) | 64 (≈ 55.1 µM) | 21.1 | CC(=O)NCCNc1nc(NCC(=O)NCCNc2nc(NCC(=O)NCCNc3nc(NCC(N)=O)nc(N(Cc4ccccc4)Cc4ccccc4)n3)nc(N(CCCN)CCCN)n2)nc(N(Cc2ccccc2)Cc2ccccc2)n1 [BJK-5] | – | – | – | – | – | – | – | – |
| – | – | – | – | – | CC(=O)NCCNc1nc(NCC(=O)NCCNc2nc(NCC(=O)NCCNc3nc(NCC(=O)NCCNc4nc(NCC(N)=O)nc(N(Cc5ccccc5)Cc5ccccc5)n4)nc(N(CCCN)CCCN)n3)nc(N(Cc3ccccc3)Cc3ccccc3)n2)nc(N(CCCN)CCCN)n1 [BJK-6] | – | – | 16 (≈ 10.8 µM) | 16 (≈ 10.8 µM) | 16 (≈ 10.8 µM) | 16 (≈ 10.8 µM) | – | – |
| >128 | 128 (≈ 343 µM) | 128 (≈ 343 µM) | >128 | 15.4 | CC(=O)N[C@@H](CCCCN)C(=O)N[C@@H](Cc1c[nH]c2ccccc12)C(N)=O [BJK-7] (Ac-Lys-Trp-NH2) | – | – | – | – | – | – | – | – |
| >128 | 128 (≈ 255 µM) | 64 (≈ 128 µM) | >128 | 14.2 | CC(=O)N[C@@H](CCCCN)C(=O)N[C@@H](Cc1c[nH]c2ccccc12)C(=O)N[C@@H](CCCCN)C(N)=O [BJK-8] (Ac-Lys-Trp-Lys-NH2) | – | – | – | – | – | – | – | – |
| >128 | >128 | >128 | >128 | 19.6 | CC(=O)N[C@@H](Cc1c[nH]c2ccccc12)C(=O)N[C@@H](CCCCN)C(=O)N[C@@H](Cc1c[nH]c2ccccc12)C(N)=O [BJK-9] (Ac-Trp-Lys-Trp-NH2) | – | – | – | – | – | – | – | – |
| – | – | – | – | – | CC[C@H](C)[C@H](NC(=O)CN)C(=O)NCC(=O)N[C@@H](C)C(=O)N[C@H](C(=O)N[C@@H](CC(C)C)C(=O)N[C@@H](CCCCN)C(=O)N[C@H](C(=O)N[C@@H](CC(C)C)C(=O)N[C@H](C(=O)N[C@H](C(=O)NCC(=O)N[C@@H](CC(C)C)C(=O)N1CCC[C@H]1C(=O)N[C@@H](C)C(=O)N[C@@H](CC(C)C)C(=O)N[C@H](C(=O)N[C@@H](CO)C(=O)N[C@@H](Cc1c[nH]c2ccccc12)C(=O)N[C@H](C(=O)N[C@@H](CCCCN)C(=O)N[C@@H](CCCNC(=N)N)C(=O)N[C@@H](CCCCN)C(=O)N[C@@H](CCCNC(=N)N)C(=O)N[C@@H](CCC(N)=O)C(=O)N[C@@H](CCC(N)=O)C(N)=O)[C@@H](C)CC)[C@@H](C)CC)[C@@H](C)O)[C@@H](C)O)C(C)C)C(C)C [melittin, reference compound] | – | – | – | – | – | – | completely abolished | completely abolished |

| SMILES | MIC, Staphylococcus epidermidis (KCTC 1917) ([1]; KCTC 1917, 18 h) [µg/mL] | MIC, P. aeruginosa (KCTC 1637) ([2]; KCTC 1637, 18 h) [µg/mL] | MIC, E. coli (KCTC 1682) (E. coli (KCTC 1682); KCTC 1682, 18 h) [µg/mL] | MIC, Staphylococcus aureus (KCTC 1621) ([3]; KCTC 1621, 18 h) [µg/mL] | Rt, HPLC retention time [4] [min] | Antimicrobial activity against S. aureus after trypsin treatment [5] | Antimicrobial activity against E. coli after trypsin treatment [6] | MIC, Staphylococcus epidermidis (KCTC 1917) [1, 7] [µg/mL] | MIC, P. aeruginosa (KCTC 1637) [2, 8] [µg/mL] | MIC, E. coli (KCTC 1682) (E. coli (KCTC 1682); [8]) [µg/mL] | MIC, Staphylococcus aureus (KCTC 1621) [3, 7] [µg/mL] | Antimicrobial activity against S. aureus after trypsin treatment ([5]; 100 μg/mL peptide, 0.4 μg/mL trypsin in PBS, 37 °C, 2 h, then S. aureus KCTC 1621 in Mueller-Hinton broth, 18 h at 37 °C, absorbance 600 nm) | Antimicrobial activity against E. coli after trypsin treatment ([6]; 100 μg/mL peptide, 0.4 μg/mL trypsin in PBS, 37 °C, 2 h, then E. coli KCTC 1682 in Mueller-Hinton broth, 18 h at 37 °C, absorbance 600 nm) |
| --- | --- | --- | --- | --- | --- | --- | --- | --- | --- | --- | --- | --- | --- |
| CC(=O)NCCNc1nc(NCC(=O)NCCNc2nc(NCC(=O)NCCNc3nc(NCC(N)=O)nc(N(CCCN)CCCN)n3)nc(N(Cc3ccccc3)Cc3ccccc3)n2)nc(N(CCCN)CCCN)n1 [BJK-4] | 16 (≈ 14.6 µM) | 16 (≈ 14.6 µM) | 16 (≈ 14.6 µM) | 16 (≈ 14.6 µM) | – | nearly preserved | nearly preserved | – | – | – | – | – | – |
| CC(=O)N[C@@H](CCCCN)C(=O)N[C@@H](Cc1c[nH]c2ccccc12)C(=O)N[C@@H](CCCCN)C(=O)N[C@@H](Cc1c[nH]c2ccccc12)C(N)=O [BJK-10] (Ac-KWKW-NH2) | – | – | – | – | 17.9 | – | – | >128 | >128 | >128 | >128 | – | – |
